Key:
[1] = tested on: monoclonal antibody 14H04; test: ACMIA cross-reactivity / binding of tacrolimus derivatives to monoclonal antibody 14H04; parameters: species or system mouse; conditions: ACMIA format
Experimental: The monoclonal antibody for region 14 may be identified by a screening method as follows: The binding region of an antibody clone was identified based on its binding properties to different tacrolimus derivatives such as metabolites and immunogens.
Measurements of tacrolimus derivatives by the ACMIA assay format were carried out according to the following procedure. Metabolites were obtained from Isotechnika Pharma Inc (Alberta, Canada) and Dr. Christistians Laboratory at University of Colorado in Denver, Colo. The tacrolimus derivative compounds such as immunogens were obtained from Siemens AG (Glasgow, Del.). The metabolite and immunogen cross-reactivity was measured using the ACMIA methodology described in U.S. Pat. No. 7,186,518, the relevant disclosure of which is incorporated herein by reference. Briefly, both clones were conjugated to β-galactosidase using a standard heterobifunctional SMCC (succinimidyl trans-4-(N-maleimidylmethyl)cyclohexane-1-carboxylate) linker according to known techniques. […] The cross reactivity was detected by testing the samples containing spiked metabolites and other tacrolimus derivatives such as the immunogens. […] Cross-reactivity was determined by dividing the apparent tacrolimus concentration by the concentration of added metabolite and expressing the result as a percentage.

monoclonal antibody 1E2 = test: ACMIA cross-reactivity / binding of tacrolimus derivatives to monoclonal antibody 1E2; parameters: species or system mouse; conditions: ACMIA format, 1E2-β-galactosidase conjugate, tacrolimus C32 fluorescein derivative chrome particles
Experimental: The monoclonal antibody for region 12 may be identified by the following screening method. […] Modification of the hydroxyl group linked to C24 weakened the binding of monoclonal antibody 1E2 to tacrolimus.
Measurements of tacrolimus derivatives by the ACMIA assay format were carried out according to the following procedure. Metabolites were obtained from Isotechnika Pharma Inc (Alberta, Canada) and Dr. Christistians Laboratory at University of Colorado in Denver, Colo. The tacrolimus derivative compounds such as immunogens were obtained from Siemens AG (Glasgow, Del.). The metabolite and immunogen cross-reactivity was measured using the ACMIA methodology described in U.S. Pat. No. 7,186,518, the relevant disclosure of which is incorporated herein by reference. Briefly, both clones were conjugated to β-galactosidase using a standard heterobifunctional SMCC (succinimidyl trans-4-(N-maleimidylmethyl)cyclohexane-1-carboxylate) linker according to known techniques. Chrome particles (immunoassay solid phase) were prepared by conjugating tacrolimus analogs to bovine immunoglobulin and then to polyaldehyde dextran coated chromium dioxide particles. The tacrolimus analog used for monoclonal antibody 14H04 was a tacrolimus C22 oxime compound. The analog used for monoclonal antibody 1E2 was a tacrolimus C32 fluorescein derivative immobilized on anti-fluorescein antibody coated chromium dioxide particles. The cross reactivity was detected by testing the samples containing spiked metabolites and other tacrolimus derivatives such as the immunogens. The assay signals obtained from the samples containing the spiked metabolites were compared to the signals obtained from the samples containing tacrolimus standards. Cross-reactivity was determined by dividing the apparent tacrolimus concentration by the concentration of added metabolite and expressing the result as a percentage.

Row | cross-reactivity with monoclonal antibody 14H04 ([1]; spiked metabolite compared with tacrolimus standards) | binding to monoclonal antibody 1E2 (monoclonal antibody 1E2) | binding to monoclonal antibody 14H04 ([1]; 14H04-β-galactosidase conjugate, tacrolimus C22 oxime chrome particles) | Compound
1 | no cross-reactivity | – | – | C=CCC1C=C(C)CC(C)CC(O)C2OC(O)(C(=O)C(=O)N3CCCCC3C(=O)OC(C(C)=CC3CCC(O)C(OC)C3)C(C)C(O)CC1=O)C(C)CC2OC (stereo not drawn) [15-O-demethyl tacrolimus, 15-O-desmethyl-tacrolimus]
2 | – | removed the binding | – | C=CCC1C=C(C)CC(C)CC(OC)C2OC(O)(C(=O)C(=O)N3CCCCC3C(=O)OC(C(C)=CC3CCC(O)C(OC)C3)C(C)C(O)CC1=O)C(C)CC2O (stereo not drawn) [M1, 13-O-desmethyl-tacrolimus]
3 | – | removed the binding | – | C=CCC1C=C(C)CC(C)CC(OC)C2OC(O)(C(=O)C(=O)N3CCCCC3C(=O)OC(C(C)=CC3CCC(O)C(O)C3)C(C)C(O)CC1=O)C(C)CC2O (stereo not drawn) [MVI, 13,31-O-didesmethyl-tacrolimus]
4 | – | does not bind | strong binding | C=CCC1C=C(C)CC(C)CC(OC)C2OC(O)(C(=O)C(=O)N3CCCCC3C(=O)OC(C(C)=CC3CCC(O)C(OC)C3)C(C)C(O)CC1=NO)C(C)CC2OC (stereo not drawn) [tacrolimus C22 oxime]

Row | Compound | cross-reactivity with monoclonal antibody 14H04 ([1]; spiked metabolite compared with tacrolimus standards) | binding to monoclonal antibody 1E2 (monoclonal antibody 1E2) | binding to monoclonal antibody 14H04 ([1]; 14H04-β-galactosidase conjugate, tacrolimus C22 oxime chrome particles)
5 | C=CCC1C=C(C)CC(C)CC(OC)C2OC(O)(C(=O)C(=O)N3CCCCC3C(=O)OC(C(C)=CC3CCC(O)C(O)C3)C(C)C(O)CC1=O)C(C)CC2OC (stereo not drawn) [31-O-desmethyl, 31-O-desmethyl Tacrolimus] | – | does not decrease binding | –
